Data on 13 molecules can be found in patent publication US9944668B2, “Manganese-based magnetic resonance contrast agents” (The General Hospital Corporation, priority 2013, dated 2018).

Holding throughout (type): physicochemical
A short description of data set [1]: T1 relaxivity (r1) measurement at 1.4 T, 37° C., TRIS buffer pH 7.4. The conditions noted are these: for r1 (relaxivity): pH 7.4, 37° C., 1.4 Tesla, TRIS buffer. The procedure: (§1) Liquid chromatography-electrospray mass spectrometry (LC-MS) was performed using an Agilent 1100 Series apparatus with an LC/MSD trap and Daly conversion dynode detector with UV detection at 220, 254 and 280 nm. The methods used on this system are as follows: (a) Luna C18 column (100×2 mm); eluent A: H2O/0.1% formic acid, B: MeCN/0.1% formic acid; gradient: 5% B to 95% B over 9 minutes; flow rate 0.8 mL/min (used for characterization of organic compounds), and (b) Kromasil C18 column (250×4.6 mm); eluent C: 95% MeCN/5% 10 mM ammonium acetate, D: 10 mM ammonium acetate; gradient 5% C to 8% C over 14 minutes; flow rate 0.8 ml/min (used for characterization of manganese complexes). Reversed-phase semipreparative purification was performed on a Rainin Dynamax HPLC system with UV detection at 254 nm using a Polaris C18 column. The method used for purification is as follows: The mobile phase A was 50 mM ammonium acetate buffer, pH 6.5 and mobile phase B was a mixture of 5% 50 mM ammonium acetate buffer, pH 6.5/95% MeCN. Starting from 5% B, the fraction of B increased to 8% over 23 minutes. The column was washed with 100% B for 2 minutes and then ramped to 5% B. The system was re-equilibrated at 5% B for 3 minutes. Relaxivity measurements were performed on a Bruker mq60 Minispec at 1.4 T and 37° C. Manganese concentrations were determined using an Agilent 7500a ICP-MS system. All samples were diluted with 0.1% Triton X-100 in 5% nitric acid containing 20 ppb of Lu (as internal standard). The ratio of Mn (54.94)/Lu(174.97) was used to quantify the manganese concentration. A linear calibration curve ranging from 0.1 ppb to 200 ppb was generated daily for the quantification. UV-Vis spectra were recorded on a SpectraMax M2 spectrophotometer using quartz cuvette with a 1 cm path length. Cyclic voltammetry of Mn^IIHBET, Mn^IIEDTA and Mn^IIIHBET was recorded using a Nuvant EZstat pro potentiostat in TRIS buffer (pH=7.4), containing 0.5M KNO3 as supporting electrolyte, at 100 mVs-1 scan rate. Glassy carbon was used as the working electrode, Ag/AgCl served as the reference electrode and Pt wire was used as the auxiliary electrode. The K4FeCN6/K3FeCN6 couple was used as the internal standard.
T1 was measured with an inversion recovery pulse sequence taking 10 inversion times. Relaxivity was determined from the slope of a plot of 1/T1 vs. concentration of in TRIS buffer, pH=7.4 at 37° C. The concentration of manganese in each stock solution was determined using ICP-MS.

Data set [2] can be described thus: Cyclic voltammetry of manganese complexes (Mn(III)/Mn(II) redox couple). Conditions: for Half-cell potential: pH 7.4, vs. normal hydrogen electrode (NHE). As to the method: as §1
Data set [3] is described as follows: Relaxivity (r1) at different field strengths in HEPES buffer. Conditions: 37° C., pH 7.4 HEPES buffer. The procedure: The relaxivities of the compounds for Formulas (XI) and (XII) were determined at different field strengths at 37° C. in pH 7.4 HEPES buffer. The relaxivity was obtained from the slope of a plot of 1/T1 vs. [Mn] for different Mn concentrations. Since Formula (XI) contains 6 Mn per molecule, the ionic (per Mn) and molecular (per molecule) relaxivities are given below.

Data set [4] can be described thus: Kinetics of reduction of Mn^III-HBET by glutathione. The conditions noted are these: 37° C., pH 7.4; first-order in both [GSH] and [Mn^III-HBET]. As to the method:
This series of kinetic experiments were conducted at 37° C. (pH 7.4) to determine the empirical rate law for the reduction of Mn^III-HBET by glutathione. […] This feature was used to monitor the reduction of […] over time. Initial reaction rates were measured at a three different glutathione concentrations (5 mM, 10 mM and 20 mM). Additionally, for each glutathione concentration, the reaction was performed at four different initial concentrations of Mn^III-HBET (0.3 mM, 0.4 mM, 0.5 mM and 0.6 mM). By using a large excess of glutathione in these experiments, we found the reaction behaved pseudo first-order with respect to the […] complex as expressed in equation S1. [Mn^IIIHBET]t=[Mn^IIIHBET]o·e^−k^obs^·t (eq. S1)
Here, the observed rate constant (kobs) is simply the product of the actual rate constant (k) and [GSH], t is time, and the subscripts ‘t’ and ‘o’ refer to the concentration at time ‘t’ or the initial concentration, respectively. […] In this way, the slope of each line is equal to −k·[GSH] and the intercept is In[MnIII-HBET]o. Based on these experiments, we determined that the reaction was first-order in both [GSH] and [Mn^III-HBET] with an overall second-order rate constant of (3.8±0.3)×10^−1M^−1s^−1.

Data set [5] can be described thus: T1 relaxivity measurement by MR imaging at 4.7 T. Conditions: room temperature, pH 7.4 TRIS buffer. The procedure:
MR imaging was performed using a Bruker Biospec 4.7 T system. Three samples (˜500 μL) were placed in a homemade sample holder and imaged using a volume coil. Acquisition matrix=64×256 for 0.234×0.312 mm^2 in-plane resolution; slice thickness=5 mm. T1-weighted images were obtained with a fast low angle shot (FLASH) gradient echo sequence: TR/TE/FA=20/5.44/40° with 8 averages. T1 was determined using a 2D rapid acquisition refocused echo (RARE) inversion recovery sequence: TR=3200 ms, TE=9.7 ms. Inversion times (TI): 5, 45, 85, 165, 325, 645, 1285, 1925 and 3205 ms. T1 was obtained from a nonlinear least square fit of the signal intensity (SI(t)) vs. TI curve where T1, SI(0) and a are adjustable parameters, equation S2. SI(t)=SI(0)[1−α,e^TI/T1] (eq. S2)

Turning to `O=C([O-])CN(CCN(CC(=O)[O-])Cc1ccccc1[O-])CC(=O)[O-].[Mn+2].[Na+].[Na+]` [Compound 4, Na2[Mn^IIHBET]], the “r1 (relaxivity)” value in data set [1] stood at 2.76 mM⁻¹ s⁻¹. Besides, the Half-cell potential in data set [2] is on record as 379 mV.
With Na[Mn(TyOH-EDTA)] [(XII)], the “Relaxivity r1 (per Mn)” value turned out to be 3.60 mM⁻¹ s⁻¹ in data set [3] (0.47T), 2.80 mM⁻¹ s⁻¹ in data set [3] (1.4T), 3.65 mM⁻¹ s⁻¹ in data set [3] (9.4T) and 3.05 mM⁻¹ s⁻¹ in data set [3] (11.7T).
`O=C([O-])CN(CC(=O)[O-])C1CCCCC1N(CC(=O)[O-])Cc1cc([N+](=O)[O-])ccc1[O-].[Mn+2].[Na+].[Na+]` (stereo not shown) [Compound 30, Na2[Mn^IIcycHBET-NO2)]]: in data set [1], the “r1 (relaxivity)” value stood at 2.30 mM⁻¹ s⁻¹.
Take [Mn(CyP3A)] [(IX)]: the “Relaxivity r1” value in data set [1] (1.41T, 37° C., pH 7.4 Tris buffer) is 2.50 mM⁻¹ s⁻¹.
For the molecule Mn6[N3P3-(TyOH-EDTA)6] [(XI)], the “Relaxivity r1 (per Mn)” value stood at 9.07 mM⁻¹ s⁻¹ in data set [3] (0.47T); 9.28 mM⁻¹ s⁻¹ in data set [3] (1.4T); 6.54 mM⁻¹ s⁻¹ in data set [3] (4.7T); 4.94 mM⁻¹ s⁻¹ in data set [3] (9.4T); 3.57 mM⁻¹ s⁻¹ in data set [3] (11.7T). Moreover, the “Relaxivity r1 per molecule” value in data set [3] (0.47T) amounted to 54.4 mM⁻¹ s⁻¹; in data set [3] (1.4T), 55.7 mM⁻¹ s⁻¹; in data set [3] (4.7T) it was 39.2 mM⁻¹ s⁻¹; in data set [3] (9.4T) it was 29.6 mM⁻¹ s⁻¹; in data set [3] (11.7T), 21.4 mM⁻¹ s⁻¹.
Take `COc1ccc([O-])c(CN(CCN(CC(=O)[O-])CC(=O)[O-])CC(=O)[O-])c1.[Mn+2].[Na+].[Na+]` [Compound 9, Na2[Mn^IIHBET-OMe]]: the “r1 (relaxivity)” value in data set [1] worked out at 3.11 mM⁻¹ s⁻¹. The Half-cell potential in data set [2] was 344 mV.
Consider `O=C([O-])CN(CC(=O)[O-])C1CCCCC1N(CC(=O)[O-])Cc1ccccc1[O-].[Mn+2].[Na+].[Na+]` (racemic) [Compound 20, Na2[Mn^IIcycHBET]], for which, in data set [1], the “r1 (relaxivity)” value was found to be 3.26 mM⁻¹ s⁻¹.
Turning to `O=C([O-])CN(CCN(CC(=O)[O-])Cc1cc([N+](=O)[O-])ccc1[O-])CC(=O)[O-].[Mn+3].[Na+]` [Compound 14, Na[Mn^IIIHBET-NO2]], the “r1 (relaxivity)” value in data set [1] came to 0.34 mM⁻¹ s⁻¹. Moreover, the Half-cell potential in data set [2] came out at 476 mV.
For `O=C([O-])CN(CC(=O)[O-])C1CCCCC1N(CC(=O)[O-])Cc1ccccc1[O-].[Mn+3].[Na+]` (stereo not shown) [Compound 21, Na[Mn^IIIcycHBET]] the same measures were 1.56 mM⁻¹ s⁻¹ and 365 mV.
`O=C([O-])CN(CCN(CC(=O)[O-])Cc1cc([N+](=O)[O-])ccc1[O-])CC(=O)[O-].[Mn+2].[Na+].[Na+]` [Compound 13, Na2[Mn^IIHBET-NO2]]: the “r1 (relaxivity)” value in data set [1] is 2.28 mM⁻¹ s⁻¹.
In the case of `O=C([O-])CN(CCN(CC(=O)[O-])Cc1ccccc1[O-])CC(=O)[O-].[Mn+3].[Na+]` [Compound 5, Na[Mn^IIIHBET]], the “r1 (relaxivity)” value in data set [1] was found to be 1.05 mM⁻¹ s⁻¹. The “overall second-order rate constant of reduction by glutathione” value in data set [4] was “(3.8±0.3)×10^−1 M^−1s^−1”. In data set [5], the “fold higher relaxivity of reduced form vs oxidized form” value was 3.3 fold.
Take `O=C([O-])CN(CCN(CC(=O)[O-])Cc1ccccc1[O-])Cc1ccccc1[O-].[Mn+3]` [Mn^III-HBED, reference compound]: in data set [2] (TRIS buffer pH 7.4, vs. K4Fe(CN)6/K3Fe(CN)6), the “half-cell potential (Mn^II/Mn^III)” value was determined as 0.016 V.
`O=C([O-])CN(CC(=O)[O-])C1CCCCC1N(CC(=O)[O-])Cc1cc([N+](=O)[O-])ccc1[O-].[Mn+3].[Na+]` (stereo not shown) [Compound 31, Na[Mn^IIIcycHBET-NO2]] displayed a Half-cell potential in data set [2] of 488 mV.
